Reference: patent publication US8658131B2, “Compounds comprising 4-benzoylpiperidine as a sigma-1-selective ligand” (Washington University, priority 2010, dated 2014)
Counter-ions that a name gives are not always drawn. Like-named read-outs stand apart in the source and are kept apart here.

How the values were obtained:
VAChT [1] = biological target: T1, VAChT (Homo sapiens, UniProt Q16572); details: previous study; cited from earlier work
T1 sequence (Q16572 1-532): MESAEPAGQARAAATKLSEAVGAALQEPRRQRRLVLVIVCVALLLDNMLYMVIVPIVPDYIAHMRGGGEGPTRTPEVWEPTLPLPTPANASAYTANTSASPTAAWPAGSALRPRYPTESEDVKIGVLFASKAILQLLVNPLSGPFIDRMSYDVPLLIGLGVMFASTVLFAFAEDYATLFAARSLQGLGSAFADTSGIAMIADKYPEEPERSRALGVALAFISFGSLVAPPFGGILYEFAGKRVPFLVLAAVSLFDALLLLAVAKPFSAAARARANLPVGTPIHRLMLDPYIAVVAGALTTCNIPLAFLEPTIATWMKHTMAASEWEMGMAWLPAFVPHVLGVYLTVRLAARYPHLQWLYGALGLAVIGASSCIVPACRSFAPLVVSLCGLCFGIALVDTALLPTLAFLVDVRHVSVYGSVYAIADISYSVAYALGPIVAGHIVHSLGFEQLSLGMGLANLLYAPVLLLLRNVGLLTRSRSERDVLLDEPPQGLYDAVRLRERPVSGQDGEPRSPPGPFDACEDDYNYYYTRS

σ1 receptor [2] = biological target: σ1 receptor (Homo sapiens, UniProt Q99720); details: prior art ligands of FIG. 1; read-out: σ1 receptor binding affinity; cited from earlier work
σ2 receptor [3] = biological target: T2, σ2 receptor (Rattus norvegicus, UniProt Q5U3Y7); assay: σ2 binding of Table 5 compounds; parameters: species or system guinea pig; details: read-out: σ2 Ki (nM) ± SEM; Table 6
T2 sequence (Q5U3Y7 1-176): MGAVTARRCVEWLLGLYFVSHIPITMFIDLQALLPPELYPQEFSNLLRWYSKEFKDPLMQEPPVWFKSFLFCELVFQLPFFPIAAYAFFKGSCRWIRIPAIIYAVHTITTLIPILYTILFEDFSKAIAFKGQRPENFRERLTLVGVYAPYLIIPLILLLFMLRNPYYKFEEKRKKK
Description: Compounds were tested for VAChT binding using highly purified Torpedo synaptic vesicles. The σ1 and σ2 binding affinities were tested in rat brain and in guinea pig membranes, respectively. Structures and Equilibrium binding constants (Ki) are reported in Table 5 and Table 6, respectively. As in previous studies, we define ligand selectivity in terms of a selectivity index which is calculated as Ki (σ1 or σ2)/Ki (VAChT).
Consequently, we also screened the target compounds for sigma binding to identify selective VAChT ligands from this new structural class of agents.

σ1 receptors = biological target: T3, σ1 receptors (Rattus norvegicus, UniProt Q9R0C9); assay: σ1 binding of Table 5 compounds
T3 construct: tested in rat brain and in guinea pig membranes, respectively; from tissue; host or cells: rat brain

σ2 receptor [4] = biological target: T2, σ2 receptor; assay: σ2 receptor binding assay, [3H]DTG, rat liver membrane homogenates; parameters: conducted using rat liver membrane homogenates; from tissue; host or cells: rat liver membrane homogenates
Description: (§1) The compounds were dissolved in DMF, DMSO, or ethanol, and then diluted in 50 mM Tris-HCl buffer containing 150 mM NaCl and 100 mM EDTA at pH 7.4, prior to performing the σ1 and σ2 receptor binding assays.
The incubation time was 2 h at room temperature. Nonspecific binding was determined from samples that contained 10 μM of cold haloperidol. All other procedures were identical to those described for the σ1 receptor binding assay above.
(§2) Ki values were calculated using the method of Cheng and Prusoff and are presented as the mean (±1 SEM).

VAChT [5] = biological target: T4, VAChT (Tetronarce californica, UniProt P81721); assay: biochemical; assay type: binding; details: for VAChT/σ selectivity: in words; for σ1/VAChT: selectivity index Ki (σ1)/Ki (VAChT); for σ2/VAChT: selectivity index Ki (σ2)/Ki (VAChT)
T4 construct: using highly purified Torpedo synaptic vesicles; from tissue
T4 sequence (P81721 1-515): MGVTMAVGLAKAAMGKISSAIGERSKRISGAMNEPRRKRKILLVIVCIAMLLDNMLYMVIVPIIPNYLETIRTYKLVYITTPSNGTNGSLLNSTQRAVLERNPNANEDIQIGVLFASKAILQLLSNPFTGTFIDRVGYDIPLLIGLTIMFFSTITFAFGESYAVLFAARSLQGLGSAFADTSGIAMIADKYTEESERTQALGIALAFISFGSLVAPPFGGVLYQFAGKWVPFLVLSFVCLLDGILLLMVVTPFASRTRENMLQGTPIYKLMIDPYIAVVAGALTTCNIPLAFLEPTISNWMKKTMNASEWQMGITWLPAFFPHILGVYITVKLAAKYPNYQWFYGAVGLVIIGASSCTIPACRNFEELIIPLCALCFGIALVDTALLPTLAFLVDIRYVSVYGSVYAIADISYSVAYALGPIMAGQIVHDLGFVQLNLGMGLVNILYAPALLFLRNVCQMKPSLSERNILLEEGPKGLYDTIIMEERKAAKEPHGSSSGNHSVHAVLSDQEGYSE

σ1 receptor [6] = biological target: T5, σ1 receptor (Cavia porcellus, UniProt Q60492); assay: σ1 receptor binding assay, (+)-[3H]pentazocine, guinea pig brain membranes
T5 construct: using guinea pig brain membrane homogenates; from tissue; host or cells: guinea pig brain membrane homogenates
Description: as §1
The total incubation time was 90 min at room temperature. Nonspecific binding was determined from samples that contained 10 μM of cold haloperidol. After 90 min, the reaction was quenched by adding 150 μL of ice-cold wash buffer (10 mM Tris-HCl, 150 mM NaCl, pH 7.4) using a 96 channel transfer pipet (Fisher Scientific, Pittsburgh, Pa.). The samples were harvested and filtered rapidly through a 96-well fiberglass filter plate (Millipore, Billerica, Mass.) that had been presoaked with 100 μL of 50 mM Tris-HCl buffer at pH 8.0 for 1 h.
as §2

[7] = biological target: T6, human vesicular acetylcholine transporter (VAChT) (Homo sapiens, UniProt Q16572); assay: VAChT binding assay, (−)-[3H]vesamicol, human VAChT expressed in PC12 cells
T6 construct: expressed in transfected cells; host or cells: PC12 A123.7 cells (crude extract / homogenized, partially clarified cells)
T6 sequence (Q16572 1-532): T1 sequence (Q16572 1-532)
Description: In vitro binding assays of these novel compounds to VAChT were conducted with human vesicular acetylcholine transporter (VAChT) permanently expressed in PC12^A123.7 cells at about 50 pmol/mg of crude extract. […] Duplicate data were averaged and fitted by regression with a rectangular hyperbola to estimate the Ki value of the novel compound. All compounds were independently assayed at least two times.

[8] = Sigma-2 σ1 (nM), Table 4, Ki values of VAChT specific compounds, tissue not given

Chain of σ1 receptor (Homo sapiens, UniProt Q99720) (Q99720 whole entry, species assumed): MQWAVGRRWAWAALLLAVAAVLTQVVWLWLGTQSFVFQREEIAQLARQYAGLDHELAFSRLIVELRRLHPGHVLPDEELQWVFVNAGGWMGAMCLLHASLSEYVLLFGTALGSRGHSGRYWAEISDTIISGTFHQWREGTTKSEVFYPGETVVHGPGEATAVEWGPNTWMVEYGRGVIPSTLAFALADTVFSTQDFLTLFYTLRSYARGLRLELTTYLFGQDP
T3 sequence (Q9R0C9 whole entry): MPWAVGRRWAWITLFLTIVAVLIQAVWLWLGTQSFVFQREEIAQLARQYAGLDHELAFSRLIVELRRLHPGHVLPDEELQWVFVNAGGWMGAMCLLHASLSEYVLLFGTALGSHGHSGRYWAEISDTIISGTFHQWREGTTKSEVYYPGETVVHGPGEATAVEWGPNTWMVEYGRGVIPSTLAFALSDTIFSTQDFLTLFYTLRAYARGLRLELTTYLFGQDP
T5 sequence (Q60492 whole entry): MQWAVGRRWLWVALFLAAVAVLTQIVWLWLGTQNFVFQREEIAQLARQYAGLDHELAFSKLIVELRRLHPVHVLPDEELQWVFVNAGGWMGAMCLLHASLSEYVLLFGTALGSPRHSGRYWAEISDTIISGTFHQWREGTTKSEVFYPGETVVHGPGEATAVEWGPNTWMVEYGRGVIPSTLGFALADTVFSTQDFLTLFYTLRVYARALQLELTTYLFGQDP

For O=C(c1ccc(F)cc1)C1CCN(C2CCN(C(=O)c3ccc(F)cc3)CC2O)CC1 (centres unmarked) (as salt: oxalate) [Compound 15a, (3′-Hydroxy-[1,4′-bipiperidine]-1′,4-diyl)bis(4-fluorophenyl)methanone], the melting point was 213 °C (dec.).
In the case of O=C(c1ccc(F)cc1)C1CCN(C2CCN(C(=O)c3ccccc3)CC2O)CC1 (centres unmarked) (as salt: oxalate) [Compound 15c, (1′-Benzoyl-3′-hydroxy-[1,4′-bipiperidin]-4-yl)(4-fluorophenyl)methanone], the melting point is reported as 152 °C (dec.).
With COc1ccc(C(=O)C2CCN(C3CCN(C(=O)c4ccc(F)cc4)CC3O)CC2)cc1 (centres unmarked) (as salt: oxalate) [Compound 15e, (1′-(4-Fluorobenzoyl)-3′-hydroxy-[1,4′-bipiperidin]-4-yl)(4-methoxyphenyl)methanone] the melting point was 216 °C (dec.).
With COc1ccc(C(=O)C2CCN(C3CCN(C(=O)c4ccncc4)CC3O)CC2)cc1 (centres unmarked) (as salt: oxalate) [Compound 15g, (3′-Hydroxy-1′-isonicotinoyl-[1,4′-bipiperidin]-4-yl)(4-methoxyphenyl)methanone] the melting point was 220 °C (dec.).
Cn1cccc1C(=O)C1CCN(C2Cc3ccccc3CC2O)CC1 (centres unmarked) (as salt: oxalate) [OS-5-60, (1-(3-Hydroxy-1,2,3,4-tetrahydronaphthalen-2-yl)piperidin-4-yl)(1-methyl-1H-pyrrol-2-yl) methanone oxalate] gave a melting point of 212 to 213 °C.
For Cc1ccc(C(=O)C2CCN(C3Cc4c(N)cccc4CC3O)CC2)cn1 (centres unmarked) (as salt: oxalate) [OS-5-70, (1-(8-amino-3-hydroxy-1,2,3,4-tetrahydronaphthalen-2-yl)piperidin-4-yl)(6-methylpyridin-3-yl)methanone oxalate], the melting point was 98 to 103 °C.
For COc1ccc(C(=O)C2CCN(C3Cc4c(N)cccc4CC3O)CC2)cn1 (centres unmarked) (as salt: oxalate) [OS-5-82, (1-(8-Amino-3-hydroxy-1,2,3,4-tetrahydronaphthalen-2-yl)piperidin-4-yl)(6-methoxypyridin-3-yl)methanone oxalate], the melting point was 81.4 to 83.2 °C.
Work on Nc1cccc2c1CC(N1CCC(C(=O)c3cccnc3)CC1)C(O)C2 (centres unmarked) (as salt: oxalate) [OS-5-110, (1-(8-Amino-3-hydroxy-1,2,3,4-tetrahydronaphthalen-2-yl)piperidin-4-yl)(pyridin-3-yl)methanone oxalate] yielded a melting point of 109 to 111.2 °C.
In the case of COc1ccc(C(=O)C2CCN(C3CCN(Cc4ccccc4)CC3O)CC2)cc1 (racemic) (as salt: oxalate) [Compound 14g, (1′-Benzyl-3′-hydroxy-[1,4′-bipiperidin]-4-yl)(4-methoxyphenyl)methanone], the melting point is reported as 234 °C (dec.).
For COc1ccc(C(=O)C2CCN(C3CCN(Cc4ccncc4)CC3O)CC2)cc1 (racemic) (as salt: oxalate) [Compound 14h, (3′-Hydroxy-1′-(pyridin-4-ylmethyl)-[1,4′-bipiperidin]-4-yl)(4-methoxyphenyl)methanone], the melting point was 188 °C (dec.).
For O=C(c1ccc([18F])cc1)C1CCN(C2Cc3ccccc3CC2O)CC1 (racemic) [FBBV, (±)-trcms-2-Hydroxy-3-(4-(4-[^18F]fluorobenzoyDpiperidino)tetralin], the Ki (VAChT [1]) is given as 2.7 nM.
In the case of Cc1ccc(C2CCN(C3CCCCC3O)CC2)cc1 (single isomer, unassigned; (-)) [(−)-p-methylvesamicol], the Ki (σ1 receptor [2]) is given as 8.1 nM.
In the case of OC1CCCCC1N1CCC(c2ccccc2)CC1 (single isomer, unassigned; (-)) [(−)-vesamicol, (−)-trans-2-(4-phenylpiperidino)cyclohexanol], the Ki (σ1 receptor [2]) is listed as 73.5 nM.
For O[C@H]1CCCC[C@@H]1N1CCC(c2ccc(I)s2)CC1 [(1S,2S)-2-(4-(5-iodothiophen-2-yl)piperidin-1-yl)cyclohexanol], the Ki (σ1 receptor [2]) is listed as 9.39 nM.
Compound Cc1ccc(C(=O)C2CCN(C3Cc4ccccc4CC3O)CC2)cn1 (centres unmarked) [OS-5-40, oxalate] has a Ki (σ2 receptor [3]) of 3770 ± 886 nM, a Ki (σ1 receptors) of 2110 ± 289 nM and a Ki (σ2 receptor [4]; [8]) of 3770 ± 886 nM.
In the case of Cn1cccc1C(=O)C1CCN(C2Cc3ccccc3CC2O)CC1 (centres unmarked) [OS-5-60, (1-(3-Hydroxy-1,2,3,4-tetrahydronaphthalen-2-yl)piperidin-4-yl)(1-methyl-1H-pyrrol-2-yl) methanone oxalate], the Ki (σ2 receptor [3]) is reported as 2550 ± 339 nM, the Ki (VAChT [5]) is reported as 18.4 ± 2.54 nM and the VAChT/σ selectivity (VAChT [5]) is reported as “moderate or high”. For the same compound, the σ1/VAChT (VAChT [5]) was 70.7, the σ2/VAChT (VAChT [5]) was 138.8 and the Ki (σ1 receptors) was 1300 ± 93 nM. It also gave a Ki (σ2 receptor [4]; [8]) of 2550 ± 339 nM.
In the case of COc1ccc(C(=O)C2CCN(C3Cc4c(N)cccc4CC3O)CC2)cn1 (centres unmarked) [OS-5-82, (1-(8-Amino-3-hydroxy-1,2,3,4-tetrahydronaphthalen-2-yl)piperidin-4-yl)(6-methoxypyridin-3-yl)methanone oxalate], the Ki (σ2 receptor [3]) is reported as 10800 ± 1280 nM, the Ki (VAChT [5]) is reported as 48 ± 11.4 nM and the VAChT/σ selectivity (VAChT [5]) is reported as “moderate or high”. It also gave a σ1/VAChT (VAChT [5]) of 118.4, a σ2/VAChT (VAChT [5]) of 225.3 and a Ki (σ1 receptor [6]; Table 4, Ki values of VAChT specific compounds, tissue not given, read-out: Sigma-1 σ1) of 5682 ± 26 nM. It also gave a Ki (σ1 receptors) of 5682 ± 26 nM, a Ki (σ2 receptor [4]; Table 4, Ki values of VAChT specific compounds, tissue not given, read-out: Sigma-2 σ1) of 10800 ± 1280 nM and a Ki ([7]; Table 4, Ki values of VAChT specific compounds, source not given, read-out: VAChT) of 23.3 ± 3.43 nM.
In the case of Nc1cccc2c1CC(N1CCC(C(=O)c3cccnc3)CC1)C(O)C2 (centres unmarked) [OS-5-110, (1-(8-Amino-3-hydroxy-1,2,3,4-tetrahydronaphthalen-2-yl)piperidin-4-yl)(pyridin-3-yl)methanone oxalate], the Ki (σ2 receptor [3]) is reported as 5080 ± 221 nM, the Ki (VAChT [5]) is reported as 118 ± 23.6 nM and the VAChT/σ selectivity (VAChT [5]) is reported as “moderate or high”. For the same compound, the σ1/VAChT (VAChT [5]) was 172.4, the σ2/VAChT (VAChT [5]) was 43.0 and the Ki (σ1 receptors) was 20300 ± 8130 nM. The Ki (σ2 receptor [4]; [8]) was 5080 ± 221 nM and the Ki ([7]; VAChT (nM), Table 4, Ki values of VAChT specific compounds, source not given) was 2.2 nM.
For O=C(c1ccc(OCCF)cc1)C1CCN(C2Cc3ccccc3CC2O)CC1 (centres unmarked) [TZ-3-148], the Ki (σ2 receptor [3]) was 1890 ± 239 nM, the VAChT/σ selectivity (VAChT [5]) was “poor selectivity” and the Ki (σ1 receptors) was 13.2 ± 0.2 nM.
For CNc1ccc(C(=O)C2CCN(C3Cc4ccccc4CC3O)CC2)cc1 (centres unmarked) [TZ-3-156], the Ki (σ2 receptor [3]) was 6180 ± 537 nM, the Ki (VAChT [5]) was 3.03 nM and the VAChT/σ selectivity (VAChT [5]) was “high selectivity”. For the same compound, the σ1/VAChT (VAChT [5]) was 100.5, the σ2/VAChT (VAChT [5]) was 2040 and the Ki (σ1 receptors) was 13.2 ± 0.48 nM.
For O=C(c1ccc(OCCF)nc1)C1CCN([C@H]2Cc3ccccc3C[C@@H]2O)CC1 [TZ-5-3], the Ki (σ2 receptor [3]) was 1860 ± 144 nM, the Ki (VAChT [5]) was 38 ± 3.84 nM and the VAChT/σ selectivity (VAChT [5]) was “moderate or high”. For the same compound, the σ1/VAChT (VAChT [5]) was 55.8, the σ2/VAChT (VAChT [5]) was 48.9 and the Ki (σ1 receptors) was 2120 ± 49 nM.
In the case of OC1CN(Cc2cccc(I)c2)CCC1N1CCC(c2ccccc2)CC1 (centres unmarked) [meta-iodobenzyltrozamicol], the Ki (σ1 receptor [2]) is given as 92 nM.
“(4-Fluorophenyl)(4′-hydroxy-1′-(pyridin-4-ylmethyl)-[1,3′-bipiperidin]-4-yl)methanone [Compound 16d]” showed a Ki (σ1 receptor [6]; membrane preparations of guinea pig brain, mean ± SEM, at least three experiments, read-out: σ1 (Ki)) of 1160 ± 128 nM, a σ1/VAChT selectivity (σ1 receptor [6]; ratio of Ki values, Table 1) of 0.20 and a σ1/σ2 selectivity (σ1 receptor [6]; ratio of Ki values, Table 1) of 11. It also gave a Ki (σ2 receptor [4]; homogenates of rat liver, mean ± SEM, read-out: σ2 (Ki)) of 13000 ± 2630 nM and a Ki ([7]; expressed human VAChT, mean ± SEM, read-out: VAChT (Ki)) of 237 nM.
